Data: ChEMBL document CHEMBL2163248, “Classification of inhibitors of hepatic organic anion transporting polypeptides (OATPs): influence of protein expression on drug-drug interactions” (J Med Chem, 2012)

Assays:
[1] = biological target: T1, Solute carrier organic anion transporter family member 2B1 (Homo sapiens, UniProt O94956); test: Inhibition of human liver OATP2B1 expressed in HEK293 Flp-In cells assessed as reduction in [3H]E3S uptake at 20 uM incubated for 5 mins by scintillation counting; conditions: hek293, 5 min
T1 sequence (O94956 whole entry): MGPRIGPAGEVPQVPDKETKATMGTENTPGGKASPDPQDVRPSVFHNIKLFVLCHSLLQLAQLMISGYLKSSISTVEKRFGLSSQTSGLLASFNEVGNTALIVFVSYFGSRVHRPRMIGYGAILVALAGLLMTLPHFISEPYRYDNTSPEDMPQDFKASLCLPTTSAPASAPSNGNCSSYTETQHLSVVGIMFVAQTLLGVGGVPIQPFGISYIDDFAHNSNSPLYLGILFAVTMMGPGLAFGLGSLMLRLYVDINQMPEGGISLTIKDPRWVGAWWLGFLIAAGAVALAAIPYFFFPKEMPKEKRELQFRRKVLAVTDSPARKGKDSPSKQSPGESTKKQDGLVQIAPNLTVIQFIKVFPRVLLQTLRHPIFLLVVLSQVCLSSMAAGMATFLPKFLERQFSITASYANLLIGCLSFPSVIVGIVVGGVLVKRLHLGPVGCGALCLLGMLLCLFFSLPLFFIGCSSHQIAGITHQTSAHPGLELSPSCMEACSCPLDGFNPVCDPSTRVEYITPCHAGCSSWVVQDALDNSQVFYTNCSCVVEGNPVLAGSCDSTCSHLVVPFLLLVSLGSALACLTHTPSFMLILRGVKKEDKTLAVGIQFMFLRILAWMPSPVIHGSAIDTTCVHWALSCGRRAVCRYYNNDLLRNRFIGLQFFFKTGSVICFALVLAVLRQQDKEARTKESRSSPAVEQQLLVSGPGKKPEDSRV

[2] = biological target: T2, Solute carrier organic anion transporter family member 1B1 (Homo sapiens, UniProt Q9Y6L6); test: Inhibition of human liver OATP1B1 expressed in HEK293 Flp-In cells assessed as reduction in E17-betaG uptake at 20 uM by scintillation counting; conditions: hek293, 20 µM
T2 sequence (Q9Y6L6 whole entry): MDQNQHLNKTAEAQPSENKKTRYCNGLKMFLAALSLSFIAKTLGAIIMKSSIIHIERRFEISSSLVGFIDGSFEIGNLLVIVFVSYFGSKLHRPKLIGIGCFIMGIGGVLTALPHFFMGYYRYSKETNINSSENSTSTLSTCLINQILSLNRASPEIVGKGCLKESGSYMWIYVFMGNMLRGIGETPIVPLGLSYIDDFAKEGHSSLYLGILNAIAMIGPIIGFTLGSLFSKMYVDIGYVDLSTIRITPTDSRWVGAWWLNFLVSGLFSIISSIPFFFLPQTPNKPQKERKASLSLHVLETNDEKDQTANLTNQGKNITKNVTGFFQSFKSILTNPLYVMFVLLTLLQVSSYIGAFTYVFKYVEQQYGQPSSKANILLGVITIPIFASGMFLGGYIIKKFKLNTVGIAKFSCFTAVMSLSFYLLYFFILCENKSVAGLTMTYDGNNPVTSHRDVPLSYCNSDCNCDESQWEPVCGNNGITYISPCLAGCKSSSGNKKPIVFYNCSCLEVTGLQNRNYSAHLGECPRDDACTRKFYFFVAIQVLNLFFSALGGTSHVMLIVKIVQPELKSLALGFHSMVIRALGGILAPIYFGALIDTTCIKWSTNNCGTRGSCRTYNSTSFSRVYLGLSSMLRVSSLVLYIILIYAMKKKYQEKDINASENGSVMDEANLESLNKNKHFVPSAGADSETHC

[3] = biological target: T3, Solute carrier organic anion transporter family member 1B3 (Homo sapiens, UniProt Q9NPD5); test: Inhibition of human liver OATP1B3 expressed in HEK293 Flp-In cells assessed as reduction in [3H]E17-betaG uptake at 20 uM incubated for 5 mins by scintillation counting; conditions: hek293, 5 min
T3 sequence (Q9NPD5 whole entry): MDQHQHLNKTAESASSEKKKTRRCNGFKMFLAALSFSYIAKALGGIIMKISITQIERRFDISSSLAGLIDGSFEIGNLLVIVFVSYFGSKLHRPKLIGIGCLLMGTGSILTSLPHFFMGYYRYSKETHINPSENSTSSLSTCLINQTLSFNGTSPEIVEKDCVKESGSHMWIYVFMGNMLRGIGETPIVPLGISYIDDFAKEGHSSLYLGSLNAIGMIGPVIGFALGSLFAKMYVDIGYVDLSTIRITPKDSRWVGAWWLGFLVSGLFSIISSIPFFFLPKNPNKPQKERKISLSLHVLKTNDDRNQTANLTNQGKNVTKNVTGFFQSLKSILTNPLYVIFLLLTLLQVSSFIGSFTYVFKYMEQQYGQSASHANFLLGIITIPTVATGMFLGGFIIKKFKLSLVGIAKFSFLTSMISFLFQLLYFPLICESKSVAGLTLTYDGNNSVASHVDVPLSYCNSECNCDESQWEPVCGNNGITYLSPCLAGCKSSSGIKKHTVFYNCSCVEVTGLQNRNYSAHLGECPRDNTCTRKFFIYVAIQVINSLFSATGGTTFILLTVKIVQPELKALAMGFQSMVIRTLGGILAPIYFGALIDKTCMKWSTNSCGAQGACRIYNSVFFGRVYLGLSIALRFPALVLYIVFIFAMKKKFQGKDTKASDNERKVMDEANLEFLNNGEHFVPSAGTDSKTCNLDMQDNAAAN

SMILES | INH [1] | INH [2] | INH [3]
C[C@]12CC[C@@H]3c4ccc(O)cc4CC[C@H]3[C@@H]1CC[C@@H]2O [ESTRADIOL] | 47.4% | 102.8% | 39.3%
O=C(O)c1cc(/N=N/c2ccc(S(=O)(=O)Nc3ccccn3)cc2)ccc1O [SULFASALAZINE] | 92.3% | 92.1% | 72.1%
O=c1oc2cc(O)ccc2c2oc3cc(O)ccc3c12 [COUMESTROL] | -41.5% | 73.2% | -21.1%
CC1(C)S[C@@H]2[C@H](NC(=O)Cc3ccccc3)C(=O)N2[C@H]1C(=O)O [PENICILLIN G] | 7.6% | 8.8% | 40.9%
Clc1ccccc1CN1CCc2sccc2C1 [TICLOPIDINE] | 23% | 19.4% | 0.2%
O=c1ccc2ccccc2o1 [COUMARIN] | 9.3% | 7.6% | 38.2%
CCN(CC)CCNC(=O)c1ccc(N)cc1 [PROCAINAMIDE] | 17.8% | 21.6% | 3.4%
COCCc1ccc(OCC(O)CNC(C)C)cc1 (centres undefined) [METOPROLOL] | 30.5% | 28.1% | 19.8%
CCc1oc2ccccc2c1C(=O)c1cc(Br)c(O)c(Br)c1 [BENZBROMARONE] | 76.3% | 86.6% | 19.5%
CC(NC(C)(C)C)C(=O)c1cccc(Cl)c1 (centres undefined) [BUPROPION] | 17% | 8.5% | 7.2%
C=C(C)[C@@H]1CCC2=CC(=O)C[C@@H](C)[C@]2(C)C1 [NOOTKATONE] | -72.2% | 25.6% | -3.2%
CC(C)[C@H](N)C(=O)OCCOCn1cnc2c(=O)[nH]c(N)nc21 [VALACYCLOVIR] | -7.3% | 8.3% | 6.6%
CN1CCC[C@@H]1Cc1c[nH]c2ccc(CCS(=O)(=O)c3ccccc3)cc12 | 0.4% | 31.7% | 2.8%
CN[C@@H]1C[C@H](N)[C@@H](O)[C@H](O[C@H]2O[C@H](CO)[C@H](O)[C@@H]3O[C@@]4(O[C@@H]23)O[C@H]([C@H](N)CO)[C@H](O)[C@H](O)[C@H]4O)[C@H]1O [HYGROMYCIN] | 31.5% | 32.8% | -4.2%
c1cnc2cc3c(cc2n1)[C@@H]1CNC[C@H]3C1 [VARENICLINE] | 27.3% | 24.7% | 0.8%
CC(C)(C)c1ccc(C(O)CCCN2CCC(C(O)(c3ccccc3)c3ccccc3)CC2)cc1 (centres undefined) [TERFENADINE] | 3.7% | 42.7% | 33.3%
CCOc1cc(CC(=O)N[C@@H](CC(C)C)c2ccccc2N2CCCCC2)ccc1C(=O)O [REPAGLINIDE] | 42.2% | 88.4% | 83.2%
NC(=O)N1c2ccccc2C=Cc2ccccc21 [CARBAMAZEPINE] | 17.3% | 13.3% | 23.2%
